# Test results taken from patent US12077503B2, “Substituted cyclic amides and their use as herbicides” (FMC CORPORATION, priority 2015, dated 2024).
# What was measured:
# Type in all cases: in vivo
# [1] = test system: late watergrass (Echinochloa oryzicola); assay: Test F flooded paddy test; set-up: key: 0 = no effect, 100 = complete control; details: Flood
# Text: (§1) Plant species in the flooded paddy test consisted of one stand of 9 or 10 water seeded rice seedlings (Rice, W. S. Jap, Oryza sativa cv. ‘Japonica—M202’ or Rice, W. S. Ind, ‘Indica’), and two stands of 3 or 4 transplanted rice seedlings (Oryza sativa cv. ‘Japonica—M202’), Monochoria (Monochoria vaginalis), sedge, umbrella (small-flower umbrella sedge, Cyperus difformis), hardstem bulrush (Scirpus juncoides), redstem (purple redstem, Ammannia coccinea), rice flatsedge (Cyperus iria), bearded sprangletop (Leptochloa fascicularis), barnyardgrass (Echinochloa crus-galli), waterplantain (common waterplantain, Alisma plantago-aquatica), and late watergrass (Echinochloa oryzicola) grown to the 2 to 2.5 leaf stage for testing. Potted plants were grown in a greenhouse with day/night temperature settings of 30/27° C., and supplemental balanced lighting was provided to maintain a 16-hour photoperiod. At time of treatment, test pots were flooded to 3 cm above the soil surface, treated by application of test compounds directly to the paddy water, and then maintained at that water depth for the duration of the test. Effects of treatments on rice and weeds were visually evaluated by comparison to untreated controls after 21 d. Plant response ratings, summarized in Table F, are based on a scale of 0 to 100 where 0 is no effect and 100 is complete control. A dash (-) response means no test result.
# [2] = test system: water seeded rice seedlings (Rice, W. S. Jap, Oryza sativa cv. ‘Japonica—M202’); assay: Test F flooded paddy test; set-up: key: 0 = no effect, 100 = complete control; details: Flood
# Text: as §1
# [3] = test system: bearded sprangletop (Leptochloa fascicularis); assay: Test F flooded paddy test; set-up: key: 0 = no effect, 100 = complete control; details: Flood
# Text: as §1
# [4] = test system: barnyardgrass (Echinochloa crus-galli); assay: Test F flooded paddy test; set-up: key: 0 = no effect, 100 = complete control; details: Flood
# Text: as §1
# [5] = test system: Monochoria (Monochoria vaginalis); assay: Test F flooded paddy test; set-up: key: 0 = no effect, 100 = complete control; details: Flood
# Text: as §1
# [6] = test system: transplanted rice seedlings (Oryza sativa cv. ‘Japonica—M202’); assay: Test F flooded paddy test; set-up: key: 0 = no effect, 100 = complete control; details: Flood
# Text: as §1
# [7] = test system: radish, wild (wild radish, Raphanus raphanistrum); assay: Test D preemergence; details: scale 0 to 100
# Summary of the method: (§2)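 Preemergence soil test: silt loam, formulation = non-phytotoxic solvent + surfactant, ~21 d controlled environment, visual injury score 0 (none) to 100 (complete control) vs untreated.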
# [8] = test system: deadnettle (henbit deadnettle, Lamium amplexicaule); assay: Test D preemergence; details: scale 0 to 100
# Summary of the method: as §2
# [9] = test system: field violet (Viola arvensis); assay: Test D preemergence; details: scale 0 to 100
# Summary of the method: as §2
smiles,measurement,setting,value
"CN1C[C@H](c2ccc(F)c(F)c2)[C@@H](C(=O)Nc2ccccc2F)C1=O [Compound 596, (3S,4S)-4-(3,4-difluorophenyl)-N-(2-fluorophenyl)-1-methyl-2-oxo-3-pyrrolidinecarboxamide]","Plant response rating: Watergrass, Late",[1]; 16 g ai/ha,15
same,"Plant response rating: Watergrass, Late",[1]; 32 g ai/ha,40
same,"Plant response rating: Watergrass, Late",[1]; 64 g ai/ha,85
same,"Plant response rating: Watergrass, Late",[1]; 125 g ai/ha,100
same,"Plant response rating: Watergrass, Late",[1]; 250 g ai/ha,100
same,"Plant response rating: Rice, Water Seeded",[2]; 16 g ai/ha,0
same,"Plant response rating: Rice, Water Seeded",[2]; 32 g ai/ha,0
same,"Plant response rating: Rice, Water Seed.",[2]; 64 g ai/ha,10
same,"Plant response rating: Rice, Water Seed.",[2]; 125 g ai/ha,10
same,"Plant response rating: Rice, Water Seeded",[2]; 250 g ai/ha,15
same,"Plant response rating: Sprangletop, Brdd.",[3]; 16 g ai/ha,0
same,"Plant response rating: Sprangletop, Brdd.",[3]; 32 g ai/ha,40
same,"Plant response rating: Sprangletop, Brdd.",[3]; 64 g ai/ha,85
same,"Plant response rating: Sprangletop, Brdd.",[3]; 125 g ai/ha,85
same,"Plant response rating: Sprangletop, Brdd.",[3]; 250 g ai/ha,95
same,Plant response rating: Barnyardgrass,[4]; 16 g ai/ha,45
same,Plant response rating: Barnyardgrass,[4]; 32 g ai/ha,65
same,Plant response rating: Barnyardgrass,[4]; 64 g ai/ha,100
same,Plant response rating: Barnyardgrass,[4]; 125 g ai/ha,100
same,Plant response rating: Barnyardgrass,[4]; 250 g ai/ha,100
same,Plant response rating: Monochoria,[5]; 16 g ai/ha,25
same,Plant response rating: Monochoria,[5]; 32 g ai/ha,45
same,Plant response rating: Monochoria,[5]; 64 g ai/ha,100
same,Plant response rating: Monochoria,[5]; 125 g ai/ha,100
same,Plant response rating: Monochoria,[5]; 250 g ai/ha,100
same,"Plant response rating: Rice, Transplanted",[6]; 16 g ai/ha,0
same,"Plant response rating: Rice, Transplanted",[6]; 32 g ai/ha,0
same,"Plant response rating: Rice, Transplanted",[6]; 64 g ai/ha,0
same,"Plant response rating: Rice, Transplanted",[6]; 125 g ai/ha,0
same,"Plant response rating: Rice, Transplanted",[6]; 250 g ai/ha,0
"CN1C[C@H](c2ccc(C(F)(F)F)cc2)[C@@H](C(=O)Nc2cccc(F)c2F)C1=O [Compound 623, (3S,4S)—N-(2,3-difluorophenyl)-1-methyl-2-oxo-4-[4-(trifluoromethyl)phenyl]-3-pyrrolidinecarboxamide]","Plant response rating: Radish, Wild",[7]; 31 g ai/ha,0
same,"Plant response rating: Radish, Wild",[7]; 62 g ai/ha,15
same,"Plant response rating: Radish, Wild",[7]; 125 g ai/ha,50
same,"Plant response rating: Radish, Wild",[7]; 250 g ai/ha,85
same,Plant response rating: Deadnettle,[8]; 31 g ai/ha,25
same,Plant response rating: Deadnettle,[8]; 62 g ai/ha,65
same,Plant response rating: Deadnettle,[8]; 125 g ai/ha,75
same,Plant response rating: Deadnettle,[8]; 250 g ai/ha,75
same,Plant response rating: Field Violet,[9]; 31 g ai/ha,0
same,Plant response rating: Field Violet,[9]; 62 g ai/ha,0
same,Plant response rating: Field Violet,[9]; 125 g ai/ha,10
same,Plant response rating: Field Violet,[9]; 250 g ai/ha,15
